Data reported in ChEMBL document CHEMBL6182947, “Discovery of Phloroglucinol Derivatives as a New Type of Nonnucleoside Inhibitors with Anti-herpes Simplex Virus Type 1 Activity” (J Med Chem, 2025).

Experiments:
[1] = Selectivity index, ratio of CC50 for Cytotoxicity against african green monkey Vero cells to IC50 for Antiviral activity against HSV1 infected in African green monkey Vero cells; assay type: toxicity, cell-based; conditions: read-out: Selectivity Index
[2] = Cytotoxicity against African green monkey Vero cells assessed as cell viability measured after 24 hrs incubation by MTT assay; assay type: toxicity, cell-based; conditions: chlorocebus sabaeus
Human alphaherpesvirus 1 [3] = test: Antiviral activity against HSV1 infected in African green monkey Vero cells assessed as reduction of virus-induced cytopathic effect measured after 48 hrs of incubation; assay type: functional, organism-based; conditions: Human alphaherpesvirus 1, Vero
Human alphaherpesvirus 1 [4] = test: Antiviral activity against ACV-resistant HSV1 153 infected in African green monkey Vero cells assessed as reduction of virus-induced cytopathic effect measured after 48 hrs of incubation; assay type: functional, organism-based; conditions: Human alphaherpesvirus 1, 153, Vero
Human alphaherpesvirus 1 [5] = test: Antiviral activity against ACV-resistant HSV1 Blue infected in African green monkey Vero cells assessed as reduction of virus-induced cytopathic effect measured after 48 hrs of incubation; assay type: functional, organism-based; conditions: Human alphaherpesvirus 1, Blue

| SMILES | selectivity ratio [1] | CC50 at 24 h [2] [µM] | IC50 (Human alphaherpesvirus 1 [3]) [nM] | IC50 (Human alphaherpesvirus 1 [4]) [nM] | IC50 (Human alphaherpesvirus 1 [5]) [nM] |
| --- | --- | --- | --- | --- | --- |
| CC(=O)c1c(O)cc2c(c1O)C(CC(C)C)C1=C(O2)C(C)(C)C(=O)C(C)(C)C1=O (stereo not drawn) | 13.4 | 12.5 | 900 | – | – |
| CC(C)C1C2=C(Oc3cc(O)cc(O)c31)C(C)(C)C(=O)C(C)(C)C2=O (stereo not drawn) | 2.22 | 20 | 9000 | – | – |
| CC(C)C(=O)c1c(O)cc2c(c1O)C(C(C)C)C1=C(O2)C(C)(C)C(=O)C(C)(C)C1=O (racemic) | 26.8 | 20.9 | 780 | – | – |
| CC(C)CC(=O)c1c(O)cc2c(c1O)C(C1CCCC1)C1=C(O2)C(C)(C)C(=O)C(C)(C)C1=O (stereo not drawn) | 11.4 | 8 | 700 | 500 | 500 |
| CC(C)CC(=O)c1c(O)cc2c(c1O)[C@H](CC(C)C)C1=C(C[C@H](C)CC1=O)O2 | 8.89 | 20 | 2250 | – | – |
| COc1c(C(=O)CC(C)C)c(O)cc2c1C(CC(C)C)C1=C(O2)C(C)(C)C(=O)C(C)(C)C1=O (stereo not drawn) | – | > 100 | 50000 | – | – |
| CC(C)CC(=O)c1c(O)cc2c(c1O)C(C(C)C)C1=C(O2)C(C)(C)C(=O)C(C)(C)C1=O (stereo not drawn) | 15.9 | 10 | 630 | 700 | 600 |
| CC(C)CC(O)c1c(O)cc2c(c1O)C(CC(C)C)C1=C(O2)C(C)(C)C(=O)C(C)(C)C1=O (stereo not drawn) | – | > 100 | > 100000 | – | – |
| CC(C)CC(=O)c1c(O)cc2c(c1O)C(C1CCCCC1)C1=C(O2)C(C)(C)C(=O)C(C)(C)C1=O (stereo not drawn) | 12.5 | 10 | 800 | 500 | 500 |
| CC(C)CC(=O)c1c(O)cc2c(c1O)C(C1CCC1)C1=C(O2)C(C)(C)C(=O)C(C)(C)C1=O (stereo not drawn) | 10 | 5 | 500 | 400 | 500 |
| CC(=O)c1c(O)cc(O)c2c1OC1=C(C(=O)C(C)(C)C(=O)C1(C)C)C2CC(C)C (stereo not drawn) | > 10 | > 100 | 10000 | – | – |
| CC(C)CC(=O)c1c(O)c(Br)c2c(c1O)C(CC(C)C)C1=C(O2)C(C)(C)C(=O)C(C)(C)C1=O (stereo not drawn) | 11.7 | 7 | 600 | 700 | 600 |
| CC(C)CC(=O)c1c(O)cc(O)c2c1OC1=C(C(=O)C(C)(C)C(=O)C1(C)C)C2C(C)C (racemic) | < 4 | 10 | 3750 | – | – |
| CC(C)CC1C2=C(Oc3cc(O)c(C(=O)Cc4ccccc4)c(O)c31)C(C)(C)C(=O)C(C)(C)C2=O (stereo not drawn) | 21.2 | 8.5 | 400 | 500 | 300 |
| CC(C)CC(=O)c1c(O)cc2c(c1O)C(c1ccccc1)C1=C(O2)C(C)(C)C(=O)C(C)(C)C1=O (stereo not drawn) | 24.4 | 11 | 450 | 300 | 400 |
| CC(C)CC(=O)c1c(O)cc2c(c1O)[C@@H](CC(C)C)C1=C(C[C@H](C)CC1=O)O2 | 7 | 14 | 2000 | – | – |
| CCCC1C2=C(Oc3cc(O)c(C(=O)CC(C)C)c(O)c31)C(C)(C)C(=O)C(C)(C)C2=O (stereo not drawn) | 18 | 9 | 500 | 500 | 300 |
| CC(C)CC1C2=C(Oc3cc(O)c(C(=O)C4CCCCC4)c(O)c31)C(C)(C)C(=O)C(C)(C)C2=O (stereo not drawn) | 35 | 7 | 200 | 300 | 250 |
| CC(C)CC(=O)c1c(OS(=O)(=O)C(F)(F)F)cc2c(c1O)C(CC(C)C)C1=C(O2)C(C)(C)C(=O)C(C)(C)C1=O (stereo not drawn) | 16.7 | 20 | 1200 | 600 | 1000 |
| CCCCC1C2=C(Oc3cc(O)c(C(=O)CC(C)C)c(O)c31)C(C)(C)C(=O)C(C)(C)C2=O (stereo not drawn) | 10 | 10 | 1000 | 400 | 600 |
| CC(C)CC1C2=C(Oc3cc(O)c(C(=O)Cc4ccc(F)cc4)c(O)c31)C(C)(C)C(=O)C(C)(C)C2=O (stereo not drawn) | 17.1 | 6 | 350 | 200 | 200 |

| SMILES | selectivity ratio [1] | CC50 at 24 h [2] [µM] | IC50 (Human alphaherpesvirus 1 [3]) [nM] | IC50 (Human alphaherpesvirus 1 [4]) [nM] | IC50 (Human alphaherpesvirus 1 [5]) [nM] |
| --- | --- | --- | --- | --- | --- |
| CC(C)CC(=O)c1c(O)cc2c(c1O)[C@H](CC(C)C)C1=C(O2)C(C)(C)[C@@H](O)C(C)(C)C1=O | 3 | 7.5 | 2500 | – | – |
| CCC1C2=C(Oc3c(C(=O)CC(C)C)c(O)cc(O)c31)C(C)(C)C(=O)C(C)(C)C2=O (racemic) | < 10 | 10 | 1500 | – | – |
| CC(C)CC(=O)c1c(O)cc2c(c1O)C(CC(C)C)C1=C(CCCC1=O)O2 (stereo not drawn) | 5.33 | 16 | 3000 | – | – |
| CC(C)CC1C2=C(Oc3cc(O)c(C=O)c(O)c31)C(C)(C)C(=O)C(C)(C)C2=O (stereo not drawn) | 3.56 | 16 | 4500 | – | – |
| CC(C)CC1C2=C(Oc3c(C(=O)C4CCC4)c(O)cc(O)c31)C(C)(C)C(=O)C(C)(C)C2=O (stereo not drawn) | < 2.72 | 10 | 5500 | – | – |
| CC(C)CC(=O)c1ccc2c(c1O)C(CC(C)C)C1=C(O2)C(C)(C)C(=O)C(C)(C)C1=O (stereo not drawn) | – | > 100 | 50000 | – | – |
| CC(C)CC(=O)c1c(O)cc(O)c2c1OC1=C(C(=O)C(C)(C)C(=O)C1(C)C)C2CC(C)C (racemic) | 4.44 | 10 | 2250 | – | – |
| COc1cc2c(c(O)c1C(=O)CC(C)C)C(CC(C)C)C1=C(O2)C(C)(C)C(=O)C(C)(C)C1=O (stereo not drawn) | – | > 100 | > 100000 | – | – |
| CC(C)CC(=O)c1c(O)cc2c(c1O)[C@H](CC(C)C)C1=C(O2)C(C)(C)C(=O)C(C)(C)C1=O | 18.7 | 7.28 | 390 | – | – |
| CC(C)CC1C2=C(Oc3c(C(=O)C(C)C)c(O)cc(O)c31)C(C)(C)C(=O)C(C)(C)C2=O (racemic) | 3.65 | 12.8 | 3500 | – | – |
| CC(C)CC(=O)c1c(O)cc2c(c1O)C(CC(C)C)C1=C(CCC(C)(C)C1=O)O2 (stereo not drawn) | 7.27 | 16 | 2200 | – | – |
| CC(C)CC1C2=C(Oc3cc(O)cc(O)c31)C(C)(C)C(=O)C(C)(C)C2=O (stereo not drawn) | 1.86 | 13 | 7000 | – | – |
| CC(C)CC(=O)c1c(O)cc2c(c1O)[C@@H](CC(C)C)C1=C(O2)C(C)(C)C(=O)C(C)(C)C1=O | 18.3 | 7.5 | 410 | – | – |
| CC(C)CC1C2=C(Oc3cc(O)c(C(=O)c4ccccc4)c(O)c31)C(C)(C)C(=O)C(C)(C)C2=O (stereo not drawn) | 4 | 10 | 2500 | – | – |
| CCCC(=O)c1c(O)cc2c(c1O)C(CC(C)C)C1=C(O2)C(C)(C)C(=O)C(C)(C)C1=O (stereo not drawn) | – | 10 | 500 | 600 | 800 |
| CC(C)CC(=O)c1c(O)cc(O)c2c1OC1=C(C(=O)C(C)(C)C(=O)C1(C)C)C2c1ccccc1 (racemic) | 5.11 | 12.8 | 2500 | – | – |
| CC(C)CC(=O)c1c(O)cc2c(c1O)C(C)C1=C(O2)C(C)(C)C(=O)C(C)(C)C1=O (racemic) | < 18.8 | 10 | 800 | – | – |
| COc1cc2c(c(OC)c1C(=O)CC(C)C)C(CC(C)C)C1=C(O2)C(C)(C)C(=O)C(C)(C)C1=O (stereo not drawn) | – | > 100 | 50000 | – | – |
| CC1(C)C(=O)C2=C(Oc3cc(O)cc(O)c3C2c2ccccc2)C(C)(C)C1=O (stereo not drawn) | 2.25 | 18 | 8000 | – | – |
| CC(C)CC(=O)c1c(O)c(C=O)c2c(c1O)C(CC(C)C)C1=C(O2)C(C)(C)C(=O)C(C)(C)C1=O (stereo not drawn) | 3.6 | 9 | 2500 | – | – |
